Source: PubChem BioAssay AID1963864 (Molecular Pharmacology Branch, DTP, NCI, 2024)

Tested on: KRAS PDC multicell spheroid viability
Assay: Anticancer human tumor 521955-158-R6-J3-PDC patient-derived pancreatic carcinoma cell line growth inhibition [KRAS2]
Settings: for viability, T/C: stronger effect = lower value
Source text: Multicellular complex tumor spheroid response to RAS pathway inhibitors in combination with a targeted agents in patient-derived cell lines with oncogenic KRAS variants from multiple cancer types
A high-throughput screen of multi-cell type tumor spheroids was designed to identify active combinations of targeted small molecules and KRAS pathway inhibitors. Complex spheroids include a stromal component modeled by human endothelial cells (HUVEC) and fibroblasts modeled by human mesenchymal stem cells (MSCs). The concentration ranges selected for each drug and investigational agent were based upon clinically achievable concentrations if the clinical Cmax of the agent was known.
Compounds. The drugs and investigational agents: BI-3406 (NSC825286), BAY-293 (NSC824723), batoprotafib (TNO155; NSC825523), sotorasib (AMG 510; NSC818433), MRTX1257 (NSC819558), elimusertib (BAY 1895344; NSC800525), molibresib (GSK525762; NSC774829), temuterkib (LY3214996; NSC803410), venetoclax (NSC766270), alisertib (NSC759677), olaparib (NSC753686), talazoparib (NSC767125), erdafitinib (NSC781556), ipatasertib (NSC767898), cabozantinib (NSC761068), nintedanib (NSC756659), abemaciclib (NSC768073), docetaxel (NSC628503), trametinib (NSC758246), and sapanisertib (NSC764658) were obtained from the National Cancer Institute (NCI) Developmental Therapeutics Program Chemical Repository. The FDA-approved anticancer drug set is available from the Developmental Therapeutics Program. […] The stock solutions were prepared in dimethyl sulfoxide (DMSO, Sigma-Aldrich, St. Louis, MO, cat. D2650) at 800-fold the tested concentration and stored at -70 degrees C prior to their use. All drugs and investigational agents were tested over a range starting from a high concentration at or near the clinical Cmax and decreasing in half-log increments. If the clinical Cmax for an agent had not been determined, the highest concentration tested was 10 microM.
Cell Culture. All cells were maintained in an incubator at 37 degrees C and 5% CO2 with 95% humidity. The PDC lines were cultured according to standard operating procedures established by the NCI PDMR (https://pdmr.cancer.gov/sops/default.htm). Briefly, all PDCs were thawed and cultured in Matrigel-coated flasks prepared with a working solution of 1X Ham's F-12 nutrient mix, without supplementation (Invitrogen, Waltham, MA, cat. 11765054), 100 U/mL penicillin-streptomycin (Invitrogen, cat. 15140122), and 2.5% Matrigel (Corning Inc., Corning, NY, cat. 354248) for the first three passages. All PDCs were cultured in complete DMEM/F-12 media containing advanced DMEM/F-12 (Invitrogen, cat. 12634028), 4.9% defined fetal bovine serum, heat inactivated (HyClone Laboratories Inc., Logan, UT, cat. SH30070.03HI), 389 ng/mL hydrocortisone (Sigma-Aldrich, cat. H4001), 9.7 ng/mL human EGF recombinant protein (Invitrogen, cat. PHG0313), 23.4 microg/mL adenine (Sigma-Aldrich, cat. A2786), 97.3 U/mL penicillin-streptomycin (Invitrogen, cat. 15140122), 1.9 mM L-glutamine (Invitrogen, cat. 25030081), and 9.7 microM Y-27632 dihydrochloride (Tocris Bioscience, Bristol, United Kingdom, cat. 1254). The PDCs were cultured in complete DMEM/F12 media without 9.7 microM Y-27632 dihydrochloride for at least two passages prior to the screen. The established cell line HOP-62 was cultured in RPMI 1640 medium, HEPES (Invitrogen, cat. 22400105) with 10% defined fetal bovine serum (HyClone Laboratories Inc., cat. SH30070.03) and 2 mM L-glutamine (Invitrogen, cat. 25030081). The pooled donor HUVEC were cultured in endothelial cell growth medium 2 (PromoCell, Heidelberg, Germany, cat. C-22011) and the hMSC were cultured in mesenchymal stem cell growth medium 2 (PromoCell, cat. C-28009). For all experiments, HUVEC and hMSC were used at passages </=5, while the malignant cell lines were used at passages </=15. […]

[1] = curve of first compound, second compound 0.1 µM
[2] = curve of first compound, second compound 0.316 µM
[3] = curve of first compound, second compound 1 µM
[4] = curve of first compound, second compound 3.16 µM
[5] = second compound 0.1 µM, first compound 0.01 µM
[6] = second compound 0.1 µM, first compound 0.0316 µM
[7] = second compound 0.1 µM, first compound 0.1 µM
[8] = second compound 0.1 µM, first compound 0.316 µM
[9] = second compound 0.1 µM, first compound 1 µM
[10] = second compound 0.1 µM, first compound 3.16 µM
[11] = second compound 0.316 µM, first compound 0.01 µM
[12] = second compound 0.316 µM, first compound 0.0316 µM
[13] = second compound 0.316 µM, first compound 0.1 µM
[14] = second compound 0.316 µM, first compound 0.316 µM
[15] = second compound 0.316 µM, first compound 1 µM
[16] = second compound 0.316 µM, first compound 3.16 µM
[17] = second compound 1 µM, first compound 0.01 µM
[18] = second compound 1 µM, first compound 0.0316 µM
[19] = second compound 1 µM, first compound 0.1 µM
[20] = second compound 1 µM, first compound 0.316 µM
[21] = second compound 1 µM, first compound 1 µM
[22] = second compound 1 µM, first compound 3.16 µM
[23] = second compound 3.16 µM, first compound 0.01 µM
[24] = second compound 3.16 µM, first compound 0.0316 µM
[25] = second compound 3.16 µM, first compound 0.1 µM
[26] = second compound 3.16 µM, first compound 0.316 µM
[27] = second compound 3.16 µM, first compound 1 µM
[28] = second compound 3.16 µM, first compound 3.16 µM
[29] = curve of first compound, second compound 0.0316 µM
[30] = second compound 0.0316 µM, first compound 0.0316 µM
[31] = second compound 0.0316 µM, first compound 0.1 µM
[32] = second compound 0.0316 µM, first compound 0.316 µM
[33] = second compound 0.0316 µM, first compound 1 µM
[34] = second compound 0.0316 µM, first compound 3.16 µM
[35] = second compound 0.0316 µM, first compound 10 µM
[36] = second compound 0.1 µM, first compound 10 µM
[37] = second compound 0.316 µM, first compound 10 µM
[38] = second compound 1 µM, first compound 10 µM
[39] = second compound 3.16 µM, first compound 10 µM
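Further: drug exposure lasted seven days.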
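Wherever viability, T/C is given: 100% = DMSO vehicle wells and lower means fewer viable cells.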

Compound	IC50 [1]	IC50 [2]	IC50 [3]	IC50 [4]	viability, T/C [6]	viability, T/C [7]	viability, T/C [8]	viability, T/C [9]	viability, T/C [12]	viability, T/C [13]	viability, T/C [14]	viability, T/C [15]	viability, T/C [18]	viability, T/C [19]	viability, T/C [20]	viability, T/C [21]	viability, T/C [24]	viability, T/C [25]	viability, T/C [26]	viability, T/C [27]	other results
COc1cc2nccc(Oc3ccc(NC(=O)C4(C(=O)Nc5ccc(F)cc5)CC4)cc3)c2cc1OC	–	–	–	–	–	–	–	–	–	–	–	–	–	–	–	–	–	–	–	–	viability, T/C (compound 0.316 µM): 95.7% [middle of 5 runs]; IC50 (curve of compound): > 10 µM
CC1COCCN1c1cc(-c2ccnn2C)c2ccnc(-c3ccn[nH]3)c2n1 (configuration not stated) + CC1OCC2(CCN(c3cnc(Sc4ccnc(N)c4Cl)c(N)n3)CC2)C1N	> 3.16 µM	> 3.16 µM	> 3.16 µM	> 3.16 µM	81.1%	73.9%	67.6%	67.3%	84.5%	74.6%	64.3%	71.2%	84.8%	81.4%	76.7%	68.3%	109%	99.9%	75.8%	67.8%	IC50 (curve of first compound, second compound 10 µM): > 3.16 µM; viability, T/C [5]: 87.9%; viability, T/C [10]: 75.2%; viability, T/C [11]: 89.9%; viability, T/C [16]: 64.4%; viability, T/C [17]: 91.9%; viability, T/C [22]: 61%; viability, T/C [23]: 102%; viability, T/C [28]: 66.6%; viability, T/C (second compound 10 µM, first compound 0.01 µM): 108%; viability, T/C (second compound 10 µM, first compound 0.0316 µM): 115%; viability, T/C (second compound 10 µM, first compound 0.1 µM): 90.7%; viability, T/C (second compound 10 µM, first compound 0.316 µM): 87.6%; viability, T/C (second compound 10 µM, first compound 1 µM): 79.3%; viability, T/C (second compound 10 µM, first compound 3.16 µM): 64.9%
CCN1CCN(Cc2ccc(Nc3ncc(F)c(-c4cc(F)c5nc(C)n(C(C)C)c5c4)n3)nc2)CC1 + C=CC(=O)N1CCN(c2nc(OCC3CCCN3C)nc3c2CCN(c2cccc4cccc(C)c24)C3)CC1CC#N	> 1 µM	> 1 µM	> 1 µM	< 0.00316 µM	81.4%	85.7%	82.9%	98.8%	76.5%	77.2%	87.8%	91.9%	71.3%	65.2%	79.9%	103%	25.9%	17.1%	15.3%	4.09%	IC50 [29]: > 1 µM; viability, T/C (second compound 0.0316 µM, first compound 0.00316 µM): 94.4%; viability, T/C (second compound 0.0316 µM, first compound 0.01 µM): 81.9%; viability, T/C [30]: 76%; viability, T/C [31]: 76.1%; viability, T/C [32]: 82.8%; viability, T/C [33]: 95.1%; viability, T/C (second compound 0.1 µM, first compound 0.00316 µM): 88.3%; viability, T/C [5]: 93.6%; viability, T/C (second compound 0.316 µM, first compound 0.00316 µM): 86.1%; viability, T/C [11]: 86.4%; viability, T/C (second compound 1 µM, first compound 0.00316 µM): 72%; viability, T/C [17]: 84.5%; viability, T/C (second compound 3.16 µM, first compound 0.00316 µM): 24.9%; viability, T/C [23]: 26.4%
O=C(c1cc(Cc2n[nH]c(=O)c3ccccc23)ccc1F)N1CCN(C(=O)C2CC2)CC1 + C=CC(=O)N1CCN(c2nc(OCC3CCCN3C)nc3c2CCN(c2cccc4cccc(C)c24)C3)CC1CC#N	> 10 µM	> 10 µM	> 10 µM	< 0.0316 µM	97.9%	96.4%	97.5%	83.5%	97.5%	107%	103%	84.9%	89.9%	95.3%	79%	73.4%	42.9%	31.2%	24.1%	24.4%	IC50 [29]: > 10 µM; viability, T/C [30]: 90%; viability, T/C [31]: 97%; viability, T/C [32]: 96.7%; viability, T/C [33]: 96.4%; viability, T/C [34]: 89.4%; viability, T/C [35]: 111%; viability, T/C [10]: 87.5%; viability, T/C [36]: 101%; viability, T/C [16]: 87.3%; viability, T/C [37]: 93.6%; viability, T/C [22]: 86.2%; viability, T/C [38]: 90.5%; viability, T/C [28]: 39.9%; viability, T/C [39]: 12.4%
COc1cc2nccc(Oc3ccc(NC(=O)C4(C(=O)Nc5ccc(F)cc5)CC4)cc3)c2cc1OC + C=CC(=O)N1CCN(c2nc(OCC3CCCN3C)nc3c2CCN(c2cccc4cccc(C)c24)C3)CC1CC#N	> 10 µM	> 10 µM	> 10 µM	< 0.0316 µM	106%	102%	117%	116%	103%	99.3%	96.5%	109%	81.1%	80.8%	83.3%	82.3%	43.3%	44%	33.7%	15.4%	IC50 [29]: > 10 µM; viability, T/C [30]: 103%; viability, T/C [31]: 111%; viability, T/C [32]: 98.6%; viability, T/C [33]: 107%; viability, T/C [34]: 126%; viability, T/C [35]: 128%; viability, T/C [10]: 143%; viability, T/C [36]: 133%; viability, T/C [16]: 138%; viability, T/C [37]: 140%; viability, T/C [22]: 123%; viability, T/C [38]: 111%; viability, T/C [28]: 1.6%; viability, T/C [39]: 17.8%
